From paper PMC5623949, “Exploiting the 2-Amino-1,3,4-thiadiazole Scaffold To Inhibit Trypanosoma brucei Pteridine Reductase in Support of Early-Stage Drug Discovery” (ACS Omega, 2017)
Read-outs that look alike come from different tables or passages of the source.

Tests used:
CYP2C19 = CYP2C19 (Homo sapiens, UniProt P33261); assay: in vitro; set-up: cytochrome P450 isoform inhibition liability assay
Method: (§1) Independent of the effect of any antiparasitic potential of compounds, they were evaluated using a panel of early-toxicity assays comprising cytotoxicity (A549, human lung adenocarcinoma epithelial cell line and WI-38, human lung fibroblasts), mitochondrial toxicity (786-O, human renal carcinoma cell line), hERG inhibition,[31] cytochrome P450 inhibition (CYP1A2, CYP2C9, CYP2C19, CYP2D6, and CYP3A4),[31] and Aurora B kinase inhibition. […] For the two compounds active against TbPTR1 (4m and 4o), IC50 against hERG, cytochrome P450, and mitochondrial toxicity were determined (reported in Supporting Information). We observed that the dose of compounds 4m, 4o, 4c, and 3k was 4 μM in the potentiation assays. […] In the case of hERG, CYP2D6, CYP2A9, CYP2C19, and mitochondrial toxicity, there is a selectivity index of around 3–4 fold, thus showing an acceptable profile.  Figure 10 Summary heat map of the in vitro assays to determine possible liability issues for all synthesized compounds. Assays were performed to assess inhibition of hERG and five CYP isoforms (1A2, 2C9, 2C19, 2D6, and 3A4), growth inhibition of A549 and W1-38 cell lines, and mitochondrial toxicity at 10 μM. The hDHFR inhibition was determined at 100 μM. The data, expressed as percentage values, were organized by adopting a color code for rapid and intuitive visualization. The ideal compound should have all tiles blue, indicating a safe toxicological profile for progressing into the development pipeline. The cells are colored from blue (100% of cell growth at the tested concentration) to red (0% of cell growth at the tested concentration) for A549 and W1-38 and from blue (0% of inhibitory activity at the tested concentration) to red (100% of inhibitory activity at the tested concentration) for CYP isoforms, hERG, hDHFR, and mitochondrial toxicity.

CYP1A2 = molecular target: T1, CYP1A2 (Homo sapiens, UniProt P05177); assay: in vitro; set-up: cytochrome P450 isoform inhibition liability assay
T1 sequence (P05177 1-516): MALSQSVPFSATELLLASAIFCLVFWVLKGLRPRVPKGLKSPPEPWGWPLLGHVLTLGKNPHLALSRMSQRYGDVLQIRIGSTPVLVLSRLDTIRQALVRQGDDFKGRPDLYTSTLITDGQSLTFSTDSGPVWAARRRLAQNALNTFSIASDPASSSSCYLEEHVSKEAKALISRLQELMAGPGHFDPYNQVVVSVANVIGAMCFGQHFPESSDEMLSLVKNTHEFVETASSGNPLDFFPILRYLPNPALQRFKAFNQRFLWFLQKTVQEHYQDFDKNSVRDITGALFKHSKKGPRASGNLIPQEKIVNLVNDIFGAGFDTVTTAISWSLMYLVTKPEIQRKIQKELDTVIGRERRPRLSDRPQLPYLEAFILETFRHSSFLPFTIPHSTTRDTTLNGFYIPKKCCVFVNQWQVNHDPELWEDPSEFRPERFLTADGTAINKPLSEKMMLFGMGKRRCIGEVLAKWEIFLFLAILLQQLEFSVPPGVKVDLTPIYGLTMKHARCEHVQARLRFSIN
Method: as §1

CYP2C9 = CYP2C9 (Homo sapiens, UniProt P11712); assay: in vitro; set-up: cytochrome P450 isoform inhibition liability assay
Method: as §1

CYP3A4 = CYP3A4 (Homo sapiens, UniProt P08684); assay: in vitro; set-up: cytochrome P450 isoform inhibition liability assay
Method: as §1

CYP2D6 = CYP2D6 (Homo sapiens, UniProt P10635); assay: in vitro; set-up: cytochrome P450 isoform inhibition liability assay
Method: as §1

in vitro [1] = assay: in vitro; set-up: cytotoxicity, per cent cell growth of A549 cells; conditions: human, a549 cells; read-out: % cell growth A549 at 10uM
Method: as §1

hERG = molecular target: T2, hERG (Homo sapiens, UniProt Q12809); set-up: hERG inhibition liability assay
T2 construct: gene KCNH2
Method: as §1

786-O = assay: cells; set-up: mitochondrial toxicity in 786-O renal carcinoma cells; conditions: Homo sapiens, 786-0; mitochondrial toxicity
Method: as §1

in vitro [2] = assay: in vitro; set-up: cytotoxicity, per cent cell growth of WI-38 fibroblasts; conditions: human, wi-38 cells; read-out: % cell growth W1-38 at 10uM
Method: as §1

TbPTR1 = molecular target: T3, TbPTR1 (Trypanosoma brucei brucei, UniProt O76290); assay: biochemical; conditions: for inhibition at 50 µM: 50 μM compound, read-out: % Inhibition TbPTR1 at 50 μM
T3 construct: made in house
T3 sequence (O76290 1-268): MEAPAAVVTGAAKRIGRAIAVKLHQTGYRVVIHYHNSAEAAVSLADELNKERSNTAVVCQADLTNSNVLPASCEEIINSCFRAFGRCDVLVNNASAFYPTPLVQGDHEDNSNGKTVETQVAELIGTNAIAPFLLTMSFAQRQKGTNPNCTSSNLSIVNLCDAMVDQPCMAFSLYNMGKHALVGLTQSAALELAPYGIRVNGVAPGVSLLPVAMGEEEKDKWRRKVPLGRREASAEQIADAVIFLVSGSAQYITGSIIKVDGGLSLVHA

[3] = test system: T. b. brucei Lister 427 bloodstream forms; assay: In vitro activity against T. brucei (HTS SYBR Green I growth inhibition assay); type: cell-based, Trypanosoma brucei brucei; conditions: Trypanosoma brucei, 50 μM; standard deviation within ±10% of the value; read-out: % Inhibition T. brucei at 50 μM

T2 sequence (Q12809 whole entry): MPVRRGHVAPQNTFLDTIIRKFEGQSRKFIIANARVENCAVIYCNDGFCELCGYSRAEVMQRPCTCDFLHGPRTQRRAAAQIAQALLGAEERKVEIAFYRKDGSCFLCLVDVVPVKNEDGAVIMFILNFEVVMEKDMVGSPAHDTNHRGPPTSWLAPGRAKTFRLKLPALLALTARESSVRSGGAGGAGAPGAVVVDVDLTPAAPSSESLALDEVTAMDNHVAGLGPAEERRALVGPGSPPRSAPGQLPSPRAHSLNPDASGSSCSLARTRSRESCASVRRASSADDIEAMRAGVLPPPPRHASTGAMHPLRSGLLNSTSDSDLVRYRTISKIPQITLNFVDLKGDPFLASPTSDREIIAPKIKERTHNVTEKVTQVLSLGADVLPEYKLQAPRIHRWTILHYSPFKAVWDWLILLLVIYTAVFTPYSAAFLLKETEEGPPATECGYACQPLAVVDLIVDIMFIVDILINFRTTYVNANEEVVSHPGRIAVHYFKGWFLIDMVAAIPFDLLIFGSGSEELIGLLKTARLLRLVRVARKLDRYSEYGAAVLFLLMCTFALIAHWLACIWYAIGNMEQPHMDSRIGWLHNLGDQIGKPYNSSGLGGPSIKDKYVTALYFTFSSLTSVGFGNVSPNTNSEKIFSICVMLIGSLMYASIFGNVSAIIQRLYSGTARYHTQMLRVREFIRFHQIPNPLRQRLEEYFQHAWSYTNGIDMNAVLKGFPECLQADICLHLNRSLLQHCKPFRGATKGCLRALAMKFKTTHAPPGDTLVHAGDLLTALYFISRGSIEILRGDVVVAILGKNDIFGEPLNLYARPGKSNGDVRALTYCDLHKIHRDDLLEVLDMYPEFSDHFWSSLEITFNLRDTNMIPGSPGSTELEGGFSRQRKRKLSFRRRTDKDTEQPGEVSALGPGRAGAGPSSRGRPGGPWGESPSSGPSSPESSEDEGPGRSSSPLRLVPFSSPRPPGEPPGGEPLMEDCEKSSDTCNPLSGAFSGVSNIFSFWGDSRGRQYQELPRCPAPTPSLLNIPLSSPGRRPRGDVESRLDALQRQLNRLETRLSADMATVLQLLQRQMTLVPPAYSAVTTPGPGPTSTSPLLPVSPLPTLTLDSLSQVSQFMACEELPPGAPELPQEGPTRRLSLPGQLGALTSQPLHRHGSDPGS
CYP3A4, sequence (P08684 whole entry, canonical isoform): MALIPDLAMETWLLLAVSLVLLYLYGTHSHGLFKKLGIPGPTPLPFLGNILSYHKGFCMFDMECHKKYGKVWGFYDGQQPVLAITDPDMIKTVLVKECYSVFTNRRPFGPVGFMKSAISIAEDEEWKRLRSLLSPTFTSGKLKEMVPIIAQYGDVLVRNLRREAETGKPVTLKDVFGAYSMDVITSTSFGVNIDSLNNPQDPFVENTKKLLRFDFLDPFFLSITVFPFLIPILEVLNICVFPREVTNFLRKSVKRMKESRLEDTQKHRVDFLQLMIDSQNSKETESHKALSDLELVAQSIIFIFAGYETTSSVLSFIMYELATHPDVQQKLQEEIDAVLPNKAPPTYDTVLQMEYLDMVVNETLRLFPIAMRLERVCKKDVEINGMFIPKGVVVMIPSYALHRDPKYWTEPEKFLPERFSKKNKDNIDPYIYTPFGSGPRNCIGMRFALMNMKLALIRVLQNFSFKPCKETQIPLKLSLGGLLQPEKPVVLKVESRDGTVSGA
CYP2C9, sequence (P11712 whole entry, canonical isoform): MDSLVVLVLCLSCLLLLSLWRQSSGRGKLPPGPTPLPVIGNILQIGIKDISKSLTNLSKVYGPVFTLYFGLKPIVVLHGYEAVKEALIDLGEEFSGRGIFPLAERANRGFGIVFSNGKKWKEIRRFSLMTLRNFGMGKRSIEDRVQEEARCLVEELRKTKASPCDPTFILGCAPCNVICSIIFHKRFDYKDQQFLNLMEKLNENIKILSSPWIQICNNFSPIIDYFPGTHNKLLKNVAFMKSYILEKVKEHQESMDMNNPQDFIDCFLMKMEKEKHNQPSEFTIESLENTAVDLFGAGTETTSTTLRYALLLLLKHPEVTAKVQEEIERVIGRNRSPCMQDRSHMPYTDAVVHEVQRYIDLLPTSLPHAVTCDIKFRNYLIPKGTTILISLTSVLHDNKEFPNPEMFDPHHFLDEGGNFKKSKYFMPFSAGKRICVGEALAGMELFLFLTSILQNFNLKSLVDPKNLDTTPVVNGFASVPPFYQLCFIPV
CYP2D6, sequence (P10635 whole entry, canonical isoform): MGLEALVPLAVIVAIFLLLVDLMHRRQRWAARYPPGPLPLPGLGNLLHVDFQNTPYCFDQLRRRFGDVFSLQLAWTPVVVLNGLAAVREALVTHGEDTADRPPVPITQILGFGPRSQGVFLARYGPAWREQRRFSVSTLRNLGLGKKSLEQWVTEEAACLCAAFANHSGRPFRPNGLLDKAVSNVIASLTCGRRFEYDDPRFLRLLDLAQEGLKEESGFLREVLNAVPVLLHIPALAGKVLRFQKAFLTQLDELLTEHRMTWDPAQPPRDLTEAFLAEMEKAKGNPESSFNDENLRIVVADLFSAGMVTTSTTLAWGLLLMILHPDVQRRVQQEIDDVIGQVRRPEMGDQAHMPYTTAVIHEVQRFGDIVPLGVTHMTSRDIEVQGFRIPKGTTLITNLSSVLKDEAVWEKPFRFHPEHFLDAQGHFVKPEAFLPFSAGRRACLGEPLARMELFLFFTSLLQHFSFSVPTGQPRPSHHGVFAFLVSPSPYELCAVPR
CYP2C19, sequence (P33261 whole entry, canonical isoform): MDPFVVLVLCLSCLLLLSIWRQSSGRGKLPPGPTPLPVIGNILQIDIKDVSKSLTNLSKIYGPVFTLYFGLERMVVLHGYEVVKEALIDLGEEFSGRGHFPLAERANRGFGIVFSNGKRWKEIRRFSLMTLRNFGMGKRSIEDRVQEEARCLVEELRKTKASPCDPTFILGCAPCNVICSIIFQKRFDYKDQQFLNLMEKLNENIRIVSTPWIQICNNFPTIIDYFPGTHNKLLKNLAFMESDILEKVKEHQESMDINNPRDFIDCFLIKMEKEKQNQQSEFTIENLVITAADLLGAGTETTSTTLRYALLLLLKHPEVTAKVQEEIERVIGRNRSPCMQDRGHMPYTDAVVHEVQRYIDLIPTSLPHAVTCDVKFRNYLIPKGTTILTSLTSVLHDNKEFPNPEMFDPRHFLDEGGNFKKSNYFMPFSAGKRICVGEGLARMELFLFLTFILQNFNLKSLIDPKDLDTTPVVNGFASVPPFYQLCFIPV

SMILES | inhibition at 10 µM (CYP2C19) [%] | inhibition at 10 µM (CYP1A2) [%] | inhibition at 10 µM (CYP2C9) [%] | inhibition at 10 µM (CYP3A4) [%] | inhibition at 10 µM (CYP2D6) [%] | viability at 10 µM (in vitro [1]) [%] | inhibition at 10 µM (hERG) [%] | inhibition at 10 µM (786-O) [%] | viability at 10 µM (in vitro [2]) [%] | inhibition at 50 µM (TbPTR1) [%] | inhibition at 50 µM [3] [%] | IC50 (TbPTR1; dose-response 0.001-100 μM) [µM]
Nc1nnc(NCc2ccccc2)s1 [4b] | -32.1 ± 5.7 | -17.2 ± 3.6 | -14.7 ± 3.3 | -9.5 ± 6.2 | -32.7 ± 6.7 | 104 ± 9.3 | 1.8 ± 1.3 | 9 ± 14.8 | 124 ± 19 | 39.5 ± 0.9 | < 0 | –
Cc1ccc(CNc2nnc(N)s2)cc1 [4l] | -6.7 ± 11.4 | 17.3 ± 3.2 | 14.2 ± 3.9 | 26.9 ± 4.7 | 98.7 ± 1 | 104.6 ± 0.5 | 77.4 ± 1.5 | -5.3 ± 14.7 | 106 ± 13.2 | 18.6 ± 0.8 | 10.8 | –
COc1cc(-c2nnc(N)s2)cc(OC)c1OC [1e] | -18.5 ± 3.7 | 2.55 ± 3.9 | -12.4 ± 3.9 | -11.2 ± 10.3 | -37.2 ± 7.9 | 114 ± 6.2 | 1 ± 1.9 | – | 105 ± 22.3 | 13.5 ± 0.4 | 1.4 | –
Nc1nnc(CCC(=O)c2ccccc2)s1 [3j] | -35.4 ± 6.6 | -13.4 ± 12.3 | -30.6 ± 6.8 | -22.9 ± 7.1 | -30.6 ± 5.9 | 138 ± 8.8 | -2.3 ± 10.2 | – | 113 ± 8 | 12.9 ± 0.7 | 1.2 | –
Nc1nnc(Cc2cccc([N+](=O)[O-])c2)s1 [3c] | -36.1 ± 11.8 | -10.9 ± 1.6 | -8.8 ± 3 | -16.9 ± 5.2 | -38.6 ± 16.3 | 117 ± 3.5 | -1.8 ± 0.6 | -4.11 ± 5.77 | 88.4 ± 11.1 | 15.8 ± 0.5 | 0.8 | –
COc1cc(CNc2nnc(N)s2)cc(OC)c1OC [4k] | 0.2 ± 10.3 | 22.3 ± 4.1 | 20.2 ± 2.5 | 11.4 ± 3.6 | 23.6 ± 2.4 | 116 ± 3.8 | 21.3 ± 27.9 | -1.9 ± 14.9 | 71.2 ± 3.6 | < 0 | < 0 | –
Nc1nnc(-c2ccc(-c3ccccc3)cc2)s1 [2a] | 95.8 ± 0.7 | 98.9 ± 0.4 | 76.7 ± 0.5 | 50.6 ± 3.7 | 45.4 ± 3.1 | 142 ± 7.3 | – | 11.1 ± 4.1 | 90.7 ± 4.9 | 10.8 ± 0.4 | 43.1 | –
Nc1nnc(NCCCc2ccccc2)s1 [4q, N2G(3Gphenylpropyl)G1,3,4GthiadiazoleG2,5Gdiamine] | 17.3 ± 4.6 | 22.1 ± 2.7 | 18.6 ± 4.5 | 24.2 ± 4.7 | 100.2 ± 0.4 | 106 ± 3.7 | 81.1 ± 11.6 | 5.6 ± 18 | 111 ± 43.7 | 30 ± 1.9 | < 0 | 57
